Source: BindingDB's records for doi:10.1016/j.ejmech.2017.05.061 (The University of Queensland, 2017)

Columns and labels:
[1] = molecular target: Metallo-beta-lactamase type 2 (Aeromonas hydrophila, UniProt P26918); assay: Competitive inhibition of Aeromonas hydrophila recombinant CphA expressed in Escherichia coli BL21(DE3) using meropenem as substrate by UV/Vis multi-plate spectrophotometric method
[2] = molecular target: T1, Metallo-beta-lactamase AIM-1 (Pseudomonas aeruginosa, UniProt B5DCA0); assay: Competitive inhibition of Pseudomonas aeruginosa recombinant AIM1 expressed in Escherichia coli BL21(DE3) using cefuroxime as substrate by UV/Vis multi-plate spectrophotometric method
T1 sequence (B5DCA0 whole entry): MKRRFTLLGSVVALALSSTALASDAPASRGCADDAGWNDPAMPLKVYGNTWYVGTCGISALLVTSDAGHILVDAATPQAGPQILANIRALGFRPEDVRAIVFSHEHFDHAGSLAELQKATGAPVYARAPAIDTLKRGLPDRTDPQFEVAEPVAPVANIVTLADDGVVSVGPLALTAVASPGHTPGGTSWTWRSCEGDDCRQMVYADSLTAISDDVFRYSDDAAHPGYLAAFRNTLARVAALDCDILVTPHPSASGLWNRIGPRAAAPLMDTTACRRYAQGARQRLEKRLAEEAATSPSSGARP

Chain of Metallo-beta-lactamase type 2 (P26918 whole entry): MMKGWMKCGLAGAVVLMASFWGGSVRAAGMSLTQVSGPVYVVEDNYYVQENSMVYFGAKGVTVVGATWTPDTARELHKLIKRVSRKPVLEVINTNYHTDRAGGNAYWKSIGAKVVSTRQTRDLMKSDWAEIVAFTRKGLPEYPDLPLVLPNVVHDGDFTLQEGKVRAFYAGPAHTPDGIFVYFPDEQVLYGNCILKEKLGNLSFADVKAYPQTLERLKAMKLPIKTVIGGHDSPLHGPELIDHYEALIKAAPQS

N#Cc1c(-c2ccccc2)c(-c2ccccc2)n(Cc2ccccc2)c1NC(=O)c1ccc(C(=O)c2ccccc2)cc1
Ki [1]: 872 µM

N#Cc1c(-c2ccccc2)c(-c2ccccc2)n(Cc2ccccc2)c1N
Ki [1]: 52 µM
Ki [2]: 2200 nM

N#Cc1c(-c2ccccc2)c(-c2ccccc2)n(Cc2ccccc2)c1NC(=O)c1ccc([N+](=O)[O-])cc1
Ki [2]: 10900 nM

N#Cc1c(-c2ccccc2)c(-c2ccccc2)n(Cc2ccccc2)c1NC(=O)c1ccccc1
Ki [1]: 11 µM
Ki [2]: 1600 nM
